Measurements reported in ChEMBL document CHEMBL5576149, “Discovery of Potent STT3A/B Inhibitors and Assessment of Their Multipathogen Antiviral Potential and Safety” (J Med Chem, 2024).
In brackets after ≈: the same amount, converted by molar mass. Activity calls are given as the source filed them. The calls are words filed in the database; no cut-off is given here.

What was measured:
[1] = system: Human respirovirus 3; assay: Antiviral activity against Human parainfluenza virus 3 JS infected in human A549 cells assessed as reduction in viral proliferation incubated for 44 hrs by Hoechst dye based fluorescence analysis; assay type: functional, organism-based; conditions: Human respirovirus 3, JS, A549, 44 h
[2] = system: HepG2; assay: Selectivity ratio of apparent dissociation constant for binding affinity to STT3A in human HepG2 cells to apparent dissociation constant for binding affinity to STT3B in human HepG2 cells; assay type: cell-based
[3] = system: Human coronavirus 229E; assay: Antiviral activity against Human coronavirus 229E infected in human MRC5 cells assessed as reduction in viral growth incubated for 68 hrs by CellTiter-Glo luminescence assay; assay type: functional, organism-based; conditions: MRC5, 68 h
[4] = Cytotoxicity against human MRC5 cells by luminescence-based cell viability assay; assay type: toxicity
[5] = Inhibition of STT3A/STT3B mediated N-linked glycosylation in human H1-HeLa cells stably transduced with ERluc by measuring effective concentration of inhibition incubated for 18 hrs by One-Glo luciferase reporter assay; assay type: cell-based
[6] = system: A549; assay: Cytotoxicity against human A549 cells by fluorescent cell imaging assay; assay type: functional
[7] = Neurotoxicity in human iPSC cells co-cultured with human astrocyte assessed as inhibition of cell growth at 300 nM incubated for 48 hr by multi-electrode array analysis relative to control; assay type: toxicity, cell-based; conditions: ipsc, 48 h, 0.3 µM
[8] = Solubility of compound in FaSSIF; assay type: ADME
[9] = system: Influenza A virus; assay: Antiviral activity against influenza A virus H1N1 A/Puerto Rico/8/1934 infected in MDCK cells assessed as reduction in viral replication measured after 30 hrs of post-infection by RT-qPCR analysis relative to control; assay type: functional; design: scale not given: the % may be the effect or the level left
[10] = Unbound clearance in Wistar Han rat at 2 mg/kg,po or 1 mg/kg,iv administrated upto 60 mins by LC-MS/MS analysis; assay type: ADME, organism-based; conditions: in vivo, 1 h
[11] = Bioavailability in CD1 mouse at 2 mg/kg,po or 1 mg/kg,iv administrated upto 60 mins by LC-MS/MS analysis; assay type: ADME, organism-based; conditions: in vivo
[12] = Unbound clearance in human liver microsomes at 0.5 uM incubated upto 45 mins; assay type: ADME, Microsome; conditions: 0.75 h
[13] = Unbound clearance in CD1 mouse at 2 mg/kg,po or 1 mg/kg,iv administrated upto 60 mins by LC-MS/MS analysis; assay type: ADME, organism-based; conditions: in vivo, 1 h
[14] = MRT in CD1 mouse at 2 mg/kg,po or 1 mg/kg,iv administrated upto 60 mins by LC-MS/MS analysis; assay type: ADME, organism-based; conditions: in vivo
[15] = Inhibition of STT3A/STT3B mediated N-linked glycosylation in STT3A knockout human H1-HeLa cells stably transduced with Halo3N-ER sequence by measuring effective concentration incubated for 24 hrs by Western blotting analysis; assay type: cell-based
[16] = Unbound clearance in rat liver microsomes at 0.5 uM incubated upto 45 mins; assay type: ADME, Microsome; conditions: 0.75 h
[17] = system: H1-HeLa; assay: Inhibition of STT3A/STT3B in human H1-HeLa cells assessed as upregulation of MANF gene expression incubated for 24 hrs; assay type: cell-based
[18] = system: H1-HeLa; assay: Inhibition of STT3A/STT3B in human H1-HeLa cells assessed as upregulation of DERL3 gene expression incubated for 24 hrs; assay type: cell-based
[19] = Chromatographic hydrophobicity index, logD of the compound at pH 7.4; assay type: physicochemical; conditions: buffer
[20] = system: A549; assay: Cytotoxicity against human A549 cells; assay type: functional
[21] = MRT in Wistar Han rat at 2 mg/kg,po or 1 mg/kg,iv administrated upto 60 mins by LC-MS/MS analysis; assay type: ADME, organism-based; conditions: in vivo
[22] = Volume of distribution at steady state in Wistar Han rat at 2 mg/kg,po or 1 mg/kg,iv administrated upto 60 mins by LC-MS/MS analysis; assay type: ADME, organism-based; conditions: in vivo, 1 h
[23] = system: H1-HeLa; assay: Inhibition of STT3A/STT3B in human H1-HeLa cells assessed as upregulation of […] gene expression incubated for 24 hrs; assay type: cell-based
[24] = system: SARS-CoV-2; assay: Antiviral activity against SARS-CoV-2 infected in human A549 cells assessed as reduction in viral growth incubated for 24 hrs by Nano-Glo reagent based analysis; assay type: functional, organism-based; conditions: Severe acute respiratory syndrome coronavirus 2, A549, 24 h
[25] = system: H1-HeLa; assay: Inhibition of STT3A/STT3B in human H1-HeLa cells assessed as upregulation of SDF2L1 gene expression incubated for 24 hrs; assay type: cell-based
[26] = system: Influenza A virus; assay: Antiviral activity against influenza A virus H1N1 A/Puerto Rico/8/1934 infected in MDCK cells assessed as reduction in viral replication measured after 3 hrs of post-infection by RT-qPCR analysis relative to control; assay type: functional; design: scale not given: the % may be the effect or the level left
[27] = Bioavailability in Wistar Han rat at 2 mg/kg,po or 1 mg/kg,iv administrated upto 60 mins by LC-MS/MS analysis; assay type: ADME, organism-based; conditions: in vivo
[28] = Volume of distribution at steady state in CD1 mouse at 2 mg/kg,po or 1 mg/kg,iv administrated upto 60 mins by LC-MS/MS analysis; assay type: ADME, organism-based; conditions: in vivo, 1 h
[29] = system: Influenza A virus; assay: Antiviral activity against influenza A virus H1N1 A/Puerto Rico/8/1934 infected in MDCK cells assessed as reduction in viral proliferation incubated for 24 hrs by FFU assay; assay type: functional, organism-based; conditions: H1N1 A/Puerto Rico/8/1934, MDCK
[30] = Inhibition of STT3A/STT3B mediated N-linked glycosylation in STT3B knockout human H1-HeLa cells stably transduced with Halo3N-ER sequence by measuring effective concentration incubated for 24 hrs by Western blotting analysis; assay type: cell-based
[31] = system: Mus musculus; assay: In vivo inhibition of STT3A/STT3B in C57BL/6 mouse assessed as upregulation of DERL3 expression in lung at 0.1 to 10 mg/kg,po measured after 6 hrs by RT-qPCR analysis; assay type: functional, organism-based; conditions: dose 0.1-10 mg/kg
[32] = system: Mus musculus; assay: In vivo inhibition of STT3A/STT3B in C57BL/6 mouse assessed as upregulation of […] expression in lung at 0.1 to 10 mg/kg,po measured after 6 hrs by RT-qPCR analysis; assay type: functional, organism-based; conditions: dose 0.1-10 mg/kg
[33] = Cytotoxicity against human Hepatocyte cultured as 3D spheroids incubated for 14 days by CellTiter-Glo luminescence assay; assay type: toxicity, cell-based; conditions: hepatocytes cultured as 3D spheroids
[34] = system: Mus musculus; assay: In vivo inhibition of STT3A/STT3B in C57BL/6 mouse assessed as upregulation of SDF2L1 expression in lung at 0.1 to 10 mg/kg,po measured after 6 hrs by RT-qPCR analysis; assay type: functional, organism-based; conditions: dose 0.1-10 mg/kg
[35] = Unbound clearance in mouse liver microsomes at 0.5 uM incubated upto 45 mins; assay type: ADME, Microsome; conditions: 0.75 h
[36] = system: Mus musculus; assay: In vivo inhibition of STT3A/STT3B in C57BL/6 mouse assessed as upregulation of MANF expression in lung at 0.1 to 10 mg/kg,po measured after 6 hrs by RT-qPCR analysis; assay type: functional, organism-based; conditions: dose 0.1-10 mg/kg
[37] = system: Mus musculus; assay: In vivo inhibition of STT3A/STT3B in C57BL/6 mouse assessed as upregulation of MANF expression in blood at 0.1 to 10 mg/kg,po measured after 6 hrs by RT-qPCR analysis; assay type: functional, organism-based; conditions: dose 0.1-10 mg/kg
[38] = system: Mus musculus; assay: In vivo inhibition of STT3A/STT3B in C57BL/6 mouse assessed as upregulation of DERL3 expression in blood at 0.1 to 10 mg/kg,po measured after 6 hrs by RT-qPCR analysis; assay type: functional, organism-based; conditions: dose 0.1-10 mg/kg
[39] = system: Mus musculus; assay: In vivo inhibition of STT3A/STT3B in C57BL/6 mouse assessed as upregulation of […] expression in blood at 0.1 to 10 mg/kg,po measured after 6 hrs by RT-qPCR analysis; assay type: functional, organism-based; conditions: dose 0.1-10 mg/kg
[40] = system: Mus musculus; assay: In vivo inhibition of STT3A/STT3B in C57BL/6 mouse assessed as upregulation of SDF2L1 expression in blood at 0.1 to 10 mg/kg,po measured after 6 hrs by RT-qPCR analysis; assay type: functional, organism-based; conditions: dose 0.1-10 mg/kg

| SMILES | EC50 [1] [µM] | EC50 [3] [µM] | CC50 [4] [µM] | EC50 [5] [µM] | CC50 [6] [µM] | solubility [8] [µg/mL] | bioavailability [11] [%] | CL free [12] [mL/min/kg] | CL free [13] [mL/min/kg] | MRT [14] [min] | EC50 [15] [µM] | chromatographic logD [19] | Vdss [28] [L/kg] | EC50 [30] [µM] | further results |
| --- | --- | --- | --- | --- | --- | --- | --- | --- | --- | --- | --- | --- | --- | --- | --- |
| Cc1ccc2cc(-c3cc(S(=O)(=O)N(C)CC(=O)N4CCOC[C@@H]4C)ccc3N3CCCC3)[nH]c2c1 | 0.012 | 0.005 | 0.199 | 0.001 | 0.057 |  |  |  |  |  |  |  |  |  | Selectivity ratio [2]: 10 |
| CCCC(C)C1(CC)C(=O)NC(=O)NC1=O (stereo not given) [PENTOBARBITAL] |  |  |  |  |  |  |  |  |  |  |  |  |  |  | Activity [7]: Non-Toxic |
| CN(C)S(=O)(=O)c1ccc(N2CCCC2)c(-c2cc3ccccc3[nH]2)c1 | 0.009 | 0.025 | 0.688 | 0.021 | 0.661 | < 1 | 2 | 303 | 61467 | 54 | 0.034 | 7 | 6 | 0.036 | Activity [9]: 60%; CL free [10]: 102538 mL/min/kg; CL free [16]: 23136 mL/min/kg; inhibition [17]: Active; inhibition [18]: Active; CC50 [20]: 0.59 µM; MRT [21]: 42 min; Vdss [22]: 5.7 L/kg; inhibition [23]: Active; EC50 [24]: 0.034 µM; inhibition [25]: Active; Activity [26]: >90%; bioavailability [27]: 0%; EC50 [29]: 0.152 µM |
| C[S@@](=N)(=O)c1ccc(N2CC[C@H](O)C2)c(-c2cc3ccccc3[nH]2)c1 |  |  |  | 0.015 |  | 767 (≈ 2160 µM) | 62 | < 12 | 38 | 180 | 0.028 | 2.7 | 2 | 0.01 | inhibition [31]: Active; inhibition [32]: Active; IC50 at 14 days [33]: < 1.2 µM; inhibition [34]: Active; CL free [35]: 30 mL/min/kg; inhibition [36]: Active; inhibition [37]: Active; inhibition [38]: Active; inhibition [39]: Active; inhibition [40]: Active |
